Reference: patent US11046745B2, “Peptide mimotopes of the CD3 T-cell co-receptor epsilon chain and uses thereof” (BioNTech SE, priority 2015, dated 2021)
Positions of bridges follow the written chain, without caps; N, C: chain ends. Residues, ends and D or L forms follow the SMILES beside them. *: point of attachment. Biotin = O=C1N[C@H]2[C@H](CS[C@H]2CCCCC(=O)*)N1

Key:
TR66 antibody = assay: Peptide microarray incubated with TR66, fluorescently labelled secondary antibody; assay type: binding; conditions: cyclic peptide immobilized through C-terminus; 1.0 μg/ml TR66; data not shown
Description: Peptides were synthesized and printed on peptide-microarray slides essentially as described previously (Funkner, A. et al., J. Mol. Biol. 425, 1340-1362 (2013)). In brief, the peptides were synthesized using SPOT synthesis (Wenschuh, H. et al., Biopolymers 55, 188-206 (2000)) cleaved from the solid support and cyclized (50% DMSO, PBS buffer pH 7-8, RT, 16 hours). Subsequently, all peptides were chemoselectively immobilized on functionalized glass slides as described earlier (Schnatbaum, K. et al., Biotechnol. J. 9, 545-554 (2014); Funkner, A. et al., J. Mol. Biol. 425, 1340-1362 (2013)). Each peptide was deposited on the microarray in triplicates.
The microarrays were incubated with 1.0 or 0.1 μg/ml TR66 in an HS 4800 microarray processing station (Tecan) for two hours at 30° C., followed by incubation with 1.0 μg/ml fluorescently labelled secondary antibody (Alexa647 anti-human Fe antibody; Jackson Immuno Research). Washing steps were performed prior every incubation step with 0.1% Tween-20 in 1×TBS. After the final incubation step the microarrays were washed (0.05% Tween-20 in 0.1×SSC) and dried in a stream of nitrogen. Each microarray was scanned using a GenePix Autoloader 4200AL (Molecular Devices, Pixel size: […]). Signal intensities were evaluated using GenePix Pro 7.0 analysis software (Molecular Devices). For each peptide, the mean of the three triplicates was calculated. […]

[1] = tested on: TR66 antibody (CD3ε specific antibody, clone TR66); assay: Binding analysis using biolayer interferometry (BLI), Octet Red, biotinylated peptides on streptavidin sensors; conditions: for Yes/no binding, BLI: 500 nM TR66 antibody, one concentration; for Binding of TR66 in detailed BLI analysis (FIG. 5): TR66 1.5625 to 100 nM, dissociation constant could not be fitted
Description: FIG. 5. Comparative binding analysis of matured TR66 mimotopes aCD3-04-002 and aCD3-04-013 using biolayer interferometry (BLI) on an Octet Red system (fortéBIO). Biotinylated peptides were immobilized onto streptavidin (SA) sensors. After blocking with 1× blocking buffer and biocytin association and dissociaten rates of TR66 binding were recorded over a period of 2400 sec respectively. The antibody was used in a range of 1.5625 to 100 nM (1.5625, 3.125, 6.25, 12.5, 25, 50, 100 nM) for each analyzed peptide.
Binding analysis was performed using streptavidin (SA) sensors on an Octet Red system (fortéBIO). 5 μg/ml of biotinylated peptides were used for loading (200 μl per sensor). […] Remained biotin binding sites on coated streptavidin sensors were blocked using 100 μg/ml biocytin (Sigma-Aldrich) for 5 minutes. For binding mode analysis of different peptides 500 nM TR66 antibody was used in the association step. For detailed analysis the antibody was used in a range of 1.5625 to 100 nM (1.5625, 3.125, 6.25, 12.5, 25, 50, 100 nM) for each analyzed peptide. The following program was used: • Baseline: 1000 rpm for 180 sec. • Load: 1000 rpm for 900 sec. • Baseline: 1000 rpm for 180 sec. • Blocking: 1000 rpm for 300 sec. • Association: 1000 rpm for 1200-2400 sec. • Dissociation: 1000 rpm for 1200-2400 sec.
The peptides displaying the highest binding affinities from the peptide microarray experiments were synthesized by standard Fmoc-based solid-phase-synthesis protocols and purified (HPLC purity: >80%). The binding characteristics of each peptide were determined. In the first instance all peptides were analysed via biolayer interferometry (BLI) to get a first impression whether the respective variant has a significant binding property at all (yes/no binding, Table 2). At his point, only one TR66 concentration (500 nM) was tested. Except variants aCD3-04-010 and aCD3-04-012 all peptides show a measurable binding activity.

[2] = biological target: TR66 antibody (CD3ε specific antibody, clone TR66); assay: Binding analysis using peptide ELISA, biotinylated peptides on streptavidin plates, TR66; conditions: for Kd: TR66, mean of at least two individual measurements, two-site saturation binding model, read-out: Apparent KD, ELISA
Description: FIG. 3. Binding analysis of phage derived variants using a peptide based ELISA. Biotinylated peptides were immobilized on streptavidin plates (Nunc) in a concentration of 0.75 μg/ml. After blocking 30 μg/ml TR66 or an unrelated antibody (control ab) were added and incubated for 1 h at 37° C. Binding was detected with an alkaline phosphatase conjugated goat anti-human IgG antibody (Sigma) and the chromogenic substrate PNPP (para-nitrophenyl phosphate). All reactions were performed as duplicates. SD values are presented as error bars.
For the detection of TR66 or OKT3 (Bio-X-Cell), the CD3 mimicking peptides were immobilized on streptavidin plates (Nunc) in a concentration of 0.75 μg/ml in PBS buffer for 1 hour at 37° C. Subsequently, the plate was washed three times with washing buffer (0.01% Tween-20 in PBS buffer) before it was blocked with 3% BSA in PBS overnight at 4° C. To detect TR66 or OKT3, the blocked plate was washed again three times with washing buffer followed by the addition of TR66 or OKT3 and incubation for 30 min at 37° C. After another washing step, it was incubated with an alkaline phosphatase conjugated Goat anti-human or anti-mouse IgG, Fe antibody (Jackson Immuno Research) for additional 30 min at 37° C. Finally, the plate was washed again before being incubated with 1.5 mg/ml of the substrate PNPP (para-nitrophenyl phosphate) in appropriate substrate buffer (1 M Diethanolamine, 0.05 mM MgCl2, 0.01% sodium azide, pH 9.8) for 30 min at RT in the dark. 3 M KOH was used to stop the enzymatic reaction. Absorbance was measured with a microplate reader (Infinite M200, Tecan). For dual wavelength analysis, 405 nm was chosen as measurement wavelength and 492 nm as reference wavelength. Absorbance values were calculated by subtraction of the measured values for the reference wavelength and for the measurement wavelength. Calculation of apparent KD values was done by fitting the data with Sigma Plot 10 using a two-site saturation binding model.

[3] = tested on: Muromonab-CD3 (Orthoclone OKT3), CD3-specific monoclonal antibody; assay: Peptide ELISA for cross-reactivity to OKT3; assay type: binding, murine
Description: FIG. 6. Comparative binding analysis of maturated TR66 mimotope aCD3-04-013 to approved antibody Muromanab-CD3 (Orthoclone OKT3®). Biotinylated peptides were immobilized on streptavidin plates (Nunc). After blocking different concentrations (0, 156, 312, 625, 1250, 5000 and 10000 ng/ml) of TR66, OKT3 or an unrelated antibody (control ab) were added and incubated for 1 h at 37° C. Binding was detected with an alkaline phosphatase conjugated goat anti-human IgG antibody (Sigma) and the chromogenic substrate PNPP (para-nitrophenyl phosphate). All reactions were performed as duplicates. SD values are presented as error bars.
For the detection of TR66 or OKT3 (Bio-X-Cell), the CD3 mimicking peptides were immobilized on streptavidin plates (Nunc) in a concentration of 0.75 μg/ml in PBS buffer for 1 hour at 37° C. Subsequently, the plate was washed three times with washing buffer (0.01% Tween-20 in PBS buffer) before it was blocked with 3% BSA in PBS overnight at 4° C. To detect TR66 or OKT3, the blocked plate was washed again three times with washing buffer followed by the addition of TR66 or OKT3 and incubation for 30 min at 37° C. […] Absorbance was measured with a microplate reader (Infinite M200, Tecan). […] Absorbance values were calculated by subtraction of the measured values for the reference wavelength and for the measurement wavelength. […]

Structure (SMILES) | TR66 binding on peptide microarray (TR66 antibody) | Yes/no binding, BLI [1] | Kd [2] [µM] | TR66 binding after chemical synthesis, ELISA-based binding analysis (FIG. 3) ([2]; peptide 0.75 μg/ml, 30 μg/ml TR66) | Binding of OKT3 to mimotope, ELISA titration (FIG. 6) ([3]; OKT3 titration 0-10000 ng/ml) | Affinity of OKT3 binding compared to TR66 binding, ELISA ([3]; different detection antibodies for TR66 and OKT3) | Binding of TR66 in detailed BLI analysis (FIG. 5) [1]
C[C@H](N)C(=O)N[C@H]1CSSC[C@@H](C(=O)NCC(=O)NCC(=O)NCC(=O)N[C@@H](CO)C(=O)N[C@@H](CCCCNC(=O)CCCC[C@@H]2SC[C@@H]3NC(=O)N[C@@H]32)C(=O)O)NC(=O)[C@H](CCC(N)=O)NC(=O)[C@@H]2CCCN2C(=O)[C@H](CC(=O)O)NC(=O)CNC(=O)[C@@H]2CCCN2C(=O)[C@H](CCCNC(=N)N)NC(=O)[C@H]([C@@H](C)O)NC1=O [aCD3 C7C-4, ACTRPGDPQC-GGGS-K(Bio)] (H-ACTRPGDPQCGGGSK(Biotin)-OH; disulfide 2-10) | strong binding | Yes | 0.37 | could be verified | – | – | –
C[C@H](N)C(=O)N[C@H]1CSSC[C@@H](C(=O)NCC(=O)NCC(=O)NCC(=O)N[C@@H](CO)C(=O)N[C@@H](CCCCNC(=O)CCCC[C@@H]2SC[C@@H]3NC(=O)N[C@@H]32)C(=O)O)NC(=O)[C@H](CCC(=O)O)NC(=O)[C@@H]2CCCN2C(=O)[C@H](CC(=O)O)NC(=O)[C@H](CC(=O)O)NC(=O)[C@@H]2CCCN2C(=O)[C@H](CCCNC(=N)N)NC(=O)[C@H]([C@@H](C)O)NC1=O [aCD3-04-013, ACTRPDDPEC-GGGS-K(Bio)] (H-ACTRPDDPECGGGSK(Biotin)-OH; disulfide 2-10) | – | Yes | 0.004 | – | specific binding | slightly lower affinity | concentration-dependent binding
C[C@H](N)C(=O)N[C@H]1CSSC[C@@H](C(=O)NCC(=O)NCC(=O)NCC(=O)N[C@@H](CO)C(=O)N[C@@H](CCCCNC(=O)CCCC[C@@H]2SC[C@@H]3NC(=O)N[C@@H]32)C(=O)O)NC(=O)[C@H](CCC(N)=O)NC(=O)[C@@H]2CCCN2C(=O)[C@H](CC(=O)O)NC(=O)[C@H](CC(=O)O)NC(=O)[C@@H]2CCCN2C(=O)[C@H](CCCNC(=N)N)NC(=O)[C@H]([C@@H](C)O)NC1=O [aCD3-04-002, ACTRPDDPQC-GGGS-K(Bio)] (H-ACTRPDDPQCGGGSK(Biotin)-OH; disulfide 2-10) | – | Yes | 0.078 | – | – | – | concentration-dependent binding
